Data: the NIST ThermoML archive (doi:10.1021/je060339m)
Numbers after ± are expanded uncertainties.

Settings: Liquid

CCCCOC(C)=O [butyl ethanoate]
Settings	mass density [kg/m3]
338.15 K, 35000 kPa	870.1 ± 7.3
343.15 K, 100 kPa	829.5 ± 3.2
343.15 K, 1000 kPa	830.5 ± 3.3
343.15 K, 2000 kPa	831.7 ± 3.4
343.15 K, 3000 kPa	832.9 ± 3.5
343.15 K, 3100 kPa	833 ± 3.5
343.15 K, 5000 kPa	835.2 ± 3.7
343.15 K, 10000 kPa	840.7 ± 4.3
343.15 K, 15000 kPa	845.7 ± 4.9
343.15 K, 20000 kPa	850.5 ± 5.5
343.15 K, 25000 kPa	855.1 ± 6.1
343.15 K, 30000 kPa	860.7 ± 6.7
343.15 K, 35000 kPa	866.3 ± 7.3
348.15 K, 100 kPa	824.4 ± 3.2
348.15 K, 1000 kPa	825.4 ± 3.3
348.15 K, 2000 kPa	826.7 ± 3.4
348.15 K, 3000 kPa	827.9 ± 3.5
348.15 K, 3100 kPa	828 ± 3.5
348.15 K, 5000 kPa	830.5 ± 3.7
348.15 K, 10000 kPa	836.1 ± 4.3
348.15 K, 15000 kPa	841.3 ± 4.9
348.15 K, 20000 kPa	846.2 ± 5.5
348.15 K, 25000 kPa	850.9 ± 6.1
348.15 K, 30000 kPa	856.6 ± 6.7
348.15 K, 35000 kPa	862.4 ± 7.3
353.15 K, 100 kPa	819.3 ± 3.2
353.15 K, 1000 kPa	820.4 ± 3.3
353.15 K, 2000 kPa	821.7 ± 3.4
353.15 K, 3000 kPa	822.9 ± 3.5
353.15 K, 3100 kPa	823 ± 3.5
353.15 K, 5000 kPa	825.5 ± 3.7
353.15 K, 10000 kPa	831.3 ± 4.3
353.15 K, 15000 kPa	836.7 ± 4.9
353.15 K, 20000 kPa	841.8 ± 5.5
353.15 K, 25000 kPa	846.7 ± 6.1
353.15 K, 30000 kPa	852.5 ± 6.7
353.15 K, 35000 kPa	858.4 ± 7.3
358.15 K, 100 kPa	811.6 ± 3.2
358.15 K, 1000 kPa	813.2 ± 3.3
358.15 K, 2000 kPa	813.9 ± 3.4
358.15 K, 3100 kPa	815.3 ± 3.5
358.15 K, 5000 kPa	817.7 ± 3.8
358.15 K, 10000 kPa	823.6 ± 4.4
358.15 K, 15000 kPa	829.1 ± 5
358.15 K, 20000 kPa	835.5 ± 5.6
363.15 K, 100 kPa	806.1 ± 3.2
363.15 K, 1000 kPa	807.5 ± 3.3
363.15 K, 2000 kPa	808.8 ± 3.4
363.15 K, 3000 kPa	810.1 ± 3.5
363.15 K, 3100 kPa	810.3 ± 3.5
363.15 K, 5000 kPa	812.8 ± 3.8
363.15 K, 10000 kPa	819.2 ± 4.4
363.15 K, 15000 kPa	824.9 ± 5
363.15 K, 20000 kPa	830.4 ± 5.6
368.15 K, 100 kPa	800.3 ± 3.2
368.15 K, 1000 kPa	802.1 ± 3.3
368.15 K, 2000 kPa	803.6 ± 3.4
368.15 K, 3000 kPa	804.8 ± 3.5
368.15 K, 3100 kPa	805 ± 3.5
368.15 K, 5000 kPa	807.7 ± 3.8
368.15 K, 10000 kPa	814.3 ± 4.4
368.15 K, 15000 kPa	820.3 ± 5
368.15 K, 20000 kPa	825.9 ± 5.6
373.15 K, 100 kPa	795.8 ± 3.2
373.15 K, 1000 kPa	797.2 ± 3.3
373.15 K, 2000 kPa	798.7 ± 3.4
373.15 K, 3000 kPa	800.2 ± 3.5
373.15 K, 3100 kPa	800.4 ± 3.5
373.15 K, 5000 kPa	803.1 ± 3.8
373.15 K, 10000 kPa	809.9 ± 4.4
373.15 K, 15000 kPa	815.9 ± 5
373.15 K, 20000 kPa	821.3 ± 5.6
378.15 K, 100 kPa	790.4 ± 3.2
378.15 K, 1000 kPa	791.9 ± 3.3
378.15 K, 2000 kPa	793.7 ± 3.4
378.15 K, 3000 kPa	795.2 ± 3.5
378.15 K, 3100 kPa	795.4 ± 3.6
378.15 K, 5000 kPa	798 ± 3.8
378.15 K, 10000 kPa	804.7 ± 4.4
378.15 K, 15000 kPa	810.8 ± 5
378.15 K, 20000 kPa	817.1 ± 5.6
383.15 K, 100 kPa	785.2 ± 3.2
383.15 K, 1000 kPa	786.7 ± 3.3
383.15 K, 2000 kPa	788.3 ± 3.4
383.15 K, 3000 kPa	789.9 ± 3.6
383.15 K, 3100 kPa	790 ± 3.6
383.15 K, 5000 kPa	792.9 ± 3.8
383.15 K, 10000 kPa	800.1 ± 4.4
383.15 K, 15000 kPa	806.7 ± 5
383.15 K, 20000 kPa	812.8 ± 5.6
388.15 K, 100 kPa	779.9 ± 3.2
388.15 K, 1000 kPa	781.6 ± 3.3
388.15 K, 2000 kPa	783.2 ± 3.5
388.15 K, 3000 kPa	785.2 ± 3.6
388.15 K, 3100 kPa	785.4 ± 3.6
388.15 K, 5000 kPa	788.4 ± 3.8
388.15 K, 10000 kPa	795.8 ± 4.4
388.15 K, 15000 kPa	802.4 ± 5
388.15 K, 20000 kPa	808.6 ± 5.6
393.15 K, 100 kPa	775.2 ± 3.2
393.15 K, 1000 kPa	776.4 ± 3.4
393.15 K, 2000 kPa	778.1 ± 3.5
393.15 K, 3000 kPa	779.5 ± 3.6
393.15 K, 3100 kPa	779.7 ± 3.6
393.15 K, 5000 kPa	782.8 ± 3.8
393.15 K, 10000 kPa	790.6 ± 4.4
393.15 K, 15000 kPa	797.7 ± 5
393.15 K, 20000 kPa	804.2 ± 5.6
